The values that follow come from patent US20240317735A1, “HYDROISOQUINOLINE OR HYDRONAPHTHYRIDINE COMPOUNDS FOR THE TREATMENT OF AUTOIMMUNE DISEASE” (Hoffmann-La Roche Inc., priority 2020, published 2024).

Data set [1] can be described thus: Human microsome stability assay. Type of data set: in vitro ADME. As to conditions: 1 μM test compound, 0.5 mg/mL liver microsomal protein, 37° C., pH 7.4. How it is done:
The human microsomal stability assay is used for early assessment of metabolic stability of a test compound in human liver microsomes.
Human liver microsomes (Cat. NO.: 452117, Corning, USA; Cat. NO.: H2610, Xenotech, USA) were preincubated with test compound for 10 minutes at 37° C. in 100 mM potassium phosphate buffer, pH 7.4. The reactions were initiated by adding NADPH regenerating system. The final incubation mixtures contained 1 μM test compound, 0.5 mg/mL liver microsomal protein, 1 mM MgCl2, 1 mM NADP, 1 unit/mL isocitric dehydrogenase and 6 mM isocitric acid in 100 mM potassium phosphate buffer, pH 7.4. After incubation times of 0, 3, 6, 9, 15 and 30 minutes at 37° C., 300 μL of cold acetonitrile (including internal standard) was added to 100 μL incubation mixture to terminate the reaction. Following precipitation and centrifugation, the amount of compound remaining in the samples were determined by LC-MS/MS. Controls of no NADPH regenerating system at zero and 30 minutes were also prepared and analyzed.
Background: Liver microsomes are a subcellular fraction often used to study metabolism.

For data set [2], the target named is T1, TLR9 (Homo sapiens, UniProt Q9NR96).
T1 sequence (Q9NR96 26-1032): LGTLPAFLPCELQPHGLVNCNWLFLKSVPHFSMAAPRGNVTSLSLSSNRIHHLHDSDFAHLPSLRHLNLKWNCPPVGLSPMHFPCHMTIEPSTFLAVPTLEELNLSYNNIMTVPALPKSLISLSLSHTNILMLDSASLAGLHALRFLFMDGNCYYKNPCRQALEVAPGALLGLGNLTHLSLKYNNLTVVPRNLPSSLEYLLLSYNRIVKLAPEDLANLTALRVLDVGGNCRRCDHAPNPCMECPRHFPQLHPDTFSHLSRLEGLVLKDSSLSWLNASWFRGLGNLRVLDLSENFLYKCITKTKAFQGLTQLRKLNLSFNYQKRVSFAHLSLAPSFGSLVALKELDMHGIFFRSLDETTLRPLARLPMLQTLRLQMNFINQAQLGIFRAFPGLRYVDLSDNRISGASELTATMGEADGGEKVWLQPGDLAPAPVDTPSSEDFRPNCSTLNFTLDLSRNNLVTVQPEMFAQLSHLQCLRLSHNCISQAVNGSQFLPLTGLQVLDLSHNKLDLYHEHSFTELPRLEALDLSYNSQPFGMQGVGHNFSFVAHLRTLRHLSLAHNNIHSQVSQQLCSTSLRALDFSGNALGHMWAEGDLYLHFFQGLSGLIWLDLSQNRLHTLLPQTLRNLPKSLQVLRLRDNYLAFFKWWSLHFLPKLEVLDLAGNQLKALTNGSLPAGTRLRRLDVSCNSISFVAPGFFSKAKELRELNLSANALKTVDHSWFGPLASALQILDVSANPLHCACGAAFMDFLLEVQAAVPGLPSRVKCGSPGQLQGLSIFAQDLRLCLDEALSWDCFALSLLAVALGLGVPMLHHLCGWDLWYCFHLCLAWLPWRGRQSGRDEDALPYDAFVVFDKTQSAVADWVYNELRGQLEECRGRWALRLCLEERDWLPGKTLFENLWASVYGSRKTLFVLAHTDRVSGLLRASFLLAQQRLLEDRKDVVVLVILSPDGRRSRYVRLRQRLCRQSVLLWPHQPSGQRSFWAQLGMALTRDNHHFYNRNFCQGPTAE
The data set is described as follows: HEK293-Blue-hTLR-9 cells assay (SEAP reporter, ODN2006 stimulation). Type of data set: cell-based. Further details: host or cells: HEK293 (HEK-Blue hTLR9). As to conditions: HEK293-Blue-hTLR9 cells, ODN2006, 20 hrs; read-out: HEK/hTLR9 IC50. How it is done:
The following tests were carried out in order to determine the activity of the compounds of formula (I) and (Ia) in HEK293-Blue-hTLR-7/8/9 cells assay.
A stable HEK293-Blue-hTLR-9 cell line was purchased from InvivoGen (Cat. #: hkb-htlr9, San Diego, California, USA). These cells were originally designed for studying the stimulation of human TLR9 by monitoring the activation of NF-κB. A SEAP (secreted embryonic alkaline phosphatase) reporter gene was placed under the control of the IFN-β minimal promoter fused to five NF-κB and AP-1-binding sites. The SEAP was induced by activating NF-κB and AP-1 via stimulating HEK-Blue hTLR9 cells with TLR9 ligands. Therefore the reporter expression was declined by TLR9 antagonist under the stimulation of a ligand, such as ODN2006 (Cat. #: tlrl-2006-1, Invivogen, San Diego, California, USA), for incubation of 20 hrs. The cell culture supernatant SEAP reporter activity was determined using QUANTI-Blue™ kit (Cat. #: rep-qb1, Invivogen, San Diego, California, USA) at a wavelength of 640 nm, a detection medium that turns purple or blue in the presence of alkaline phosphatase.
HEK293-Blue-hTLR9 cells were incubated at a density of 250,000-450,000 cells/mL in a volume of 170 μL in a 96-well plate in Dulbecco's Modified Eagle's medium (DMEM) containing 4.5 g/L glucose, 50 U/mL penicillin, […], […], 2 mM L-glutamine, 10% (v/v) heat-inactivated fetal bovine serum with addition of 20 μL test compound in a serial dilution in the presence of final DMSO at 1% and 10 μL of 20 uM ODN2006 in above DMEM, perform incubation under 37° C. in a CO2 incubator for 20 hrs. Then 20 μL of the supernatant from each well was incubated with 180 μL Quanti-blue substrate solution at 37° C. for 2 h and the absorbance was read at 620˜655 nm using a spectrophotometer.
The signaling pathway that TLR9 activation leads to downstream NF-κB activation has been widely accepted, and therefore similar reporter assay was modified for evaluating TLR9 antagonist.

With `C[C@H]1CN(c2ccnc3c2cnn3C)Cc2ccc(N3C[C@@H]4CCNCC4C3=O)cc21` (relative stereo) [Example 55, cis-2-[(4R)-4-methyl-2-(1-methylpyrazolo[3,4-b]pyridin-4-yl)-3,4-dihydro-1H-isoquinolin-6-yl]-3a,4,5,6,7,7a-hexahydro-1H-pyrrolo[3,4-c]pyridin-3-one], in data set [1], the “Clearance of Human microsome” value is on record as 8.2 mL/min/kg. Further, the IC50 in data set [2] worked out at 137 nM.

As for `C[C@H]1CN(c2ccnc3c2cnn3C)Cc2ccc(N3C[C@@]4(CCNC4)CC3=O)cc21` (single isomer, unassigned) [Example 53], the “Clearance of Human microsome” value in data set [1] worked out at 7.0 mL/min/kg. In addition, in data set [2], the IC50 was 210 nM.

For the compound `C[C@H]1CN(c2ccnc3c2cnn3C)Cc2ccc(N3CCNCC3)cc21` [Example 1, (4R)-4-methyl-2-(1-methylpyrazolo[3,4-b]pyridin-4-yl)-6-piperazin-1-yl-3,4-dihydro-1H-isoquinoline], in data set [1], the “Clearance of Human microsome” value was found to be 6.2 mL/min/kg. Besides, the IC50 in data set [2] worked out at 198 nM.

`Cc1cc(N2Cc3ccc(N4CCNCC4)cc3[C@@H](C)C2)c2cnn(C)c2n1` [Example 2, (4R)-2-(1,6-dimethylpyrazolo[3,4-b]pyridin-4-yl)-4-methyl-6-piperazin-1-yl-3,4-dihydro-1H-isoquinoline]: in data set [1], the “Clearance of Human microsome” value amounted to 9.0 mL/min/kg. The IC50 in data set [2] came to 86 nM.

Consider `Cn1ncc2c(N3CCc4cc(N5CCNCC5)ccc4C3)ccnc21` [Example 3, 2-(1-methylpyrazolo[3,4-b]pyridin-4-yl)-6-piperazin-1-yl-3,4-dihydro-1H-isoquinoline], for which, in data set [1], the “Clearance of Human microsome” value amounted to 9.5 mL/min/kg. For the same compound, in data set [2], the IC50 was found to be 185 nM.

With `C[C@H]1CN(c2ccnc3c2cnn3C)Cc2ccc(N3CCN(C(=O)C4CCNCC4)CC3)cc21` [Example 7, 4-piperidyl-[4-[(4R)-4-methyl-2-(1-methylpyrazolo[3,4-b]pyridin-4-yl)-3,4-dihydro-1H-isoquinolin-6-yl]piperazin-1-yl]methanone], the “Clearance of Human microsome” value in data set [1] was 10.3 mL/min/kg. Besides, in data set [2], the IC50 came to 104 nM.

In the case of `C[C@H]1CN(c2ccnc3c2cnn3C)Cc2ccc(N3CCN(C(=O)C4CCCN4)CC3)cc21` (stereo partly drawn) [Example 8, pyrrolidin-2-yl-[4-[(4R)-4-methyl-2-(1-methylpyrazolo[3,4-b]pyridin-4-yl)-3,4-dihydro-1H-isoquinolin-6-yl]piperazin-1-yl]methanone], the “Clearance of Human microsome” value in data set [1] worked out at 7.0 mL/min/kg. For the same compound, the IC50 in data set [2] stood at 140 nM.

`C[C@H]1CN(c2ccnc3c2cnn3C)Cc2ccc(N3CCN(c4cc5c(cn4)CCNC5)CC3)cc21` [Example 9, 7-[4-[(4R)-4-methyl-2-(1-methylpyrazolo[3,4-b]pyridin-4-yl)-3,4-dihydro-1H-isoquinolin-6-yl]piperazin-1-yl]-1,2,3,4-tetrahydro-2,6-naphthyridine]: the “Clearance of Human microsome” value in data set [1] turned out to be 9.9 mL/min/kg. Moreover, the IC50 in data set [2] was found to be 117 nM.

As for `C[C@H]1CN(c2ccnc3c2cnn3C)Cc2ccc(N3CCC(O)(CN(C)C)CC3)cc21` [Example 13, 4-[(dimethylamino)methyl]-1-[(4R)-4-methyl-2-(1-methylpyrazolo[3,4-b]pyridin-4-yl)-3,4-dihydro-1H-isoquinolin-6-yl]piperidin-4-ol], the “Clearance of Human microsome” value in data set [1] came out at 6.2 mL/min/kg. Also, the IC50 in data set [2] came to 399 nM.

`Cc1cc(N2Cc3ccc(N4CCC(O)(CN(C)C)CC4)cc3[C@@H](C)C2)c2cnn(C)c2n1` [Example 14, 4-[(dimethylamino)methyl]-1-[(4R)-2-(1,6-dimethylpyrazolo[3,4-b]pyridin-4-yl)-4-methyl-3,4-dihydro-1H-isoquinolin-6-yl]piperidin-4-ol]: the “Clearance of Human microsome” value in data set [1] amounted to 6.2 mL/min/kg. The IC50 in data set [2] came out at 158 nM.

In the case of `CC1CN(c2ccc3c(c2)[C@@H](C)CN(c2ccnc4c2cnn4C)C3)CCN1` (stereo partly drawn) [Example 15, (4R)-4-methyl-6-(3-methylpiperazin-1-yl)-2-(1-methylpyrazolo[3,4-b]pyridin-4-yl)-3,4-dihydro-1H-isoquinoline], the “Clearance of Human microsome” value in data set [1] amounted to 6.2 mL/min/kg. Further, the IC50 in data set [2] came out at 309 nM.

Take `C[C@H]1CN(c2ccnc3c2cnn3C)Cc2ccc(N3CC4(CCNCC4)CC3=O)cc21` [Example 16, 2-[(4R)-4-methyl-2-(1-methylpyrazolo[3,4-b]pyridin-4-yl)-3,4-dihydro-1H-isoquinolin-6-yl]-2,8-diazaspiro[4.5]decan-3-one]: in data set [1], the “Clearance of Human microsome” value stood at 8.2 mL/min/kg. The IC50 in data set [2] was 63 nM.

On to `C[C@H]1CN(c2ccnc3c2cnn3C)Cc2ccc(OC[C@H]3CNCCN3)cc21` [Example 18, (4R)-4-methyl-2-(1-methylpyrazolo[3,4-b]pyridin-4-yl)-6-[[(2R)-piperazin-2-yl]methoxy]-3,4-dihydro-1H-isoquinoline], for which the “Clearance of Human microsome” value in data set [1] was 10.5 mL/min/kg. Moreover, the IC50 in data set [2] stood at 111 nM.

With `C[C@H]1CN(c2ccnc3c2cnn3C)Cc2ccc(OC[C@@H]3CNCCN3)cc21` [Example 19, (4R)-4-methyl-2-(1-methylpyrazolo[3,4-b]pyridin-4-yl)-6-[[(2S)-piperazin-2-yl]methoxy]-3,4-dihydro-1H-isoquinoline], the “Clearance of Human microsome” value in data set [1] came to 7.7 mL/min/kg. The IC50 in data set [2] came to 101 nM.

With `CO[C@@H]1CN(c2ccc3c(c2)[C@@H](C)CN(c2ccnc4c2cnn4C)C3)C[C@H]1N` [Example 20, (3R,4R)-4-methoxy-1-[(4R)-4-methyl-2-(1-methylpyrazolo[3,4-b]pyridin-4-yl)-3,4-dihydro-1H-isoquinolin-6-yl]pyrrolidin-3-amine], in data set [1], the “Clearance of Human microsome” value is listed as 10.2 mL/min/kg. Moreover, the IC50 in data set [2] was 239 nM.

On to `C[C@H]1CN(c2ccnc3c2cnn3C)Cc2ccc(N3CC4(CNCCO4)C3)cc21` [Example 21, 2-[(4R)-4-methyl-2-(1-methylpyrazolo[3,4-b]pyridin-4-yl)-3,4-dihydro-1H-isoquinolin-6-yl]-5-oxa-2,8-diazaspiro[3.5]nonane], for which the “Clearance of Human microsome” value in data set [1] is listed as 10.1 mL/min/kg. Besides, the IC50 in data set [2] worked out at 372 nM.

On to `CCn1ncc2c(N3Cc4ccc(N5CCNCC5)cc4[C@@H](C)C3)ccnc21` [Example 22, (4R)-2-(1-ethylpyrazolo[3,4-b]pyridin-4-yl)-4-methyl-6-piperazin-1-yl-3,4-dihydro-1H-isoquinoline], for which the “Clearance of Human microsome” value in data set [1] turned out to be 6.2 mL/min/kg. Also, the IC50 in data set [2] came out at 412 nM.
